Patent publication US20150057443A1, “Cycloalkyl Amine Compounds” (Prexa Pharmaceuticals, Inc., priority 2013, published 2015)
Like-named read-outs stand apart in the source and are kept apart here.

Legend:
human recombinant SERT = biological target: T1, human recombinant SERT (Homo sapiens, UniProt P31645); assay: SERT radioligand binding assay (scintillation proximity, [3H]citalopram)
T1 construct: membranes)
Protocol: (§1) Affinity of the compounds for monoamine transporters was determined by in vitro radioligand binding assays using cell membrane preparations derived from HEK293 cell lines stably expressing human recombinant DAT, NET or SERT receptor (Suven Life Sciences, Hyderabad, India).
(§2) Stable DAT cell lines were generated following procedures described in Eshelman et al., Molecular Pharmacology 45, 312-316; 1994. Stable NET cell lines were generated following procedures described in Pacholczyk et al., Nature 350, 350-354, 1991 and Galli et al., Journal Exp. Biol. 198, 2197-2212, 1995. Stable SERT cell lines were generated following procedures described in Ramamoorthy et al., Proc Natl Acad Sci USA 90, 2542-246, 1993.
(§3) Cell membranes were obtained from the above-referenced cell lines by manually homogenizing previously frozen cell pellets in Tris-HCl buffer and serially centrifugating and re-extracting the preparations according procedures described in Subbu et al., Journal Pharmacol ExpTher 327, 982-990, 2008.
(§4) A scintillation proximity assay was used to measure receptor binding. Homogenized membrane preparations (final protein concentration 8-15 ug/well) were pre-incubated with WGA PVT SPA beads (0.5 mg/well) for 5 minutes. Binding was initiated by adding high affinity ligands and test compounds (0.1 nM to 10 μM) or reference/positive control ligands to the membrane-bead complex. Plates were incubated for three hours and raw data counts recorded using a liquid scintillation counter (MicroBetaTriLux Counter, Perkin Elmer). Inhibition constants (Ki) were calculated using GraphPad Prism software (version 4.0).
SERT receptor binding was determined using procedures described in Owens et al., The Journal of Pharmacology and Experimental Therapeutics 283:1305-1322, 1997. A mixture of [3H]citalopram (N-methyl-[3H]citalopram, Perkin Elmer) and bead-membrane complex was added to wells containing test compound. Non-specific binding was determined using wells containing venlafaxine hydrochloride (100 uM, Sigma). Total radioligand was determined using assay buffer containing 1% DMSO in the presence of [3H]citalopram. SERT Ki values were calculated using GraphPad Prism software (version 4.0).

human recombinant NET = biological target: T2, human recombinant NET (Homo sapiens, UniProt P23975); assay: NET radioligand binding assay (scintillation proximity, [3H]nisoxetine)
T2 construct: membranes)
T2 sequence (P23975 whole entry): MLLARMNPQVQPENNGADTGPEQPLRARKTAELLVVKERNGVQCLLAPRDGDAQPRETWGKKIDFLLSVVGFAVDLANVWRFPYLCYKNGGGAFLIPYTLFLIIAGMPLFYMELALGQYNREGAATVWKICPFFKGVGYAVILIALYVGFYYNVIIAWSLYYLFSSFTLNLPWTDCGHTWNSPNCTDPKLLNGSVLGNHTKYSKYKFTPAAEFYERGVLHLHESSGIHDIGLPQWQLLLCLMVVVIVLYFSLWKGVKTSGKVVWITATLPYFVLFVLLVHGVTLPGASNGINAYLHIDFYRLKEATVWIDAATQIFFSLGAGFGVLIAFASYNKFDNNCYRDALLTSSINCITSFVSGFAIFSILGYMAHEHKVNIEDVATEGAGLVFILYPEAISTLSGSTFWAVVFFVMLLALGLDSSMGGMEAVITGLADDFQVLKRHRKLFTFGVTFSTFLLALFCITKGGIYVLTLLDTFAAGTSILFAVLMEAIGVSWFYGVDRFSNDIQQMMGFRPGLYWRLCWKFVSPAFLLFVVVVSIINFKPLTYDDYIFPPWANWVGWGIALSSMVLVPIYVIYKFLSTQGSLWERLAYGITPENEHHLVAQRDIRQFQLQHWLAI
Protocol: as §1, §2, §3, §4
NET receptor binding was determined using procedures described in Mason et al., The Journal of Pharmacology and Experimental Therapeutics 323:720-729, 2007; and Eshleman et al., The Journal of Pharmacology and Experimental Therapeutics289:877-885, 1999. A mixture of [3H]nisoxetine hydrochloride (N-methyl-[3H]nisoxetine, Perkin Elmer) and bead-membrane complex was added to wells containing test compound. Wells containing unlabeled nisoxetine (100 uM, Sigma) were used to define non-specific NET binding. Total radioligand was defined using assay buffer containing 1% DMSO in the presence of [3H]nisoxetine. NET Ki values were calculated using GraphPad Prism software (version 4.0).

human recombinant DAT = human recombinant DAT (Homo sapiens, UniProt Q01959); assay: DAT radioligand binding assay (scintillation proximity, [3H]WIN-35428)
Chain of human recombinant DAT (Q01959 whole entry): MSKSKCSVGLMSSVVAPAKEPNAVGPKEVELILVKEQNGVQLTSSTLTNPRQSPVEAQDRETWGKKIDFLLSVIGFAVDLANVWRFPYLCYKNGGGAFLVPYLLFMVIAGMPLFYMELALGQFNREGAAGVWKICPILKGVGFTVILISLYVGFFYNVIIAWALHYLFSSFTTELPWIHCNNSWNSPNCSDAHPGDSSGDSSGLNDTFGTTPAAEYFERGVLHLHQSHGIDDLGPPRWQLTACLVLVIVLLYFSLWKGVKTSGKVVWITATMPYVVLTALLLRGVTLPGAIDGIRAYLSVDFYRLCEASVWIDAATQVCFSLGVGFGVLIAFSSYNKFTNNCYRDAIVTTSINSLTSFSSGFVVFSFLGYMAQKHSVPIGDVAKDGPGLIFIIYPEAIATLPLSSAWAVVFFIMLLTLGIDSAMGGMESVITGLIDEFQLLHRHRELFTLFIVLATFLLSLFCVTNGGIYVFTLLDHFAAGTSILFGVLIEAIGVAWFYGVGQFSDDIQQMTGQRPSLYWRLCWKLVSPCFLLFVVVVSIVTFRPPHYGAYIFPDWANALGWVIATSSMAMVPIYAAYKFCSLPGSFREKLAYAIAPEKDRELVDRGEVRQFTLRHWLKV
Protocol: as §1, §2, §3, §4
DAT receptor binding was determined using procedures described in Skolnick et al., European Journal of Pharmacology, 461(2-3):99-104, 2003; and Eshleman et al., The Journal of Pharmacology and Experimental Therapeutics 289:877-885, 1999. A mixture of [3H]WIN-35428 (N-methyl 3H-WIN-35428, Perkin Elmer) and bead-membrane complex was added to wells containing test compound. Wells containing nomifensine maleate ([…], Sigma) were used to define non-specific […] binding. Total radioligand was defined by assay buffer containing 1% DMSO in the presence of [3H]WIN-35428. DAT Ki values were calculated using GraphPad Prism software (version 4.0).

[1] = HEK293 cell membranes expressing human recombinant SERT, [3H]citalopram, SPA, read-out: SERT Ki
[2] = HEK293 cell membranes expressing human recombinant NET, [3H]nisoxetine, SPA, read-out: NET Ki

T1 sequence (P31645 whole entry): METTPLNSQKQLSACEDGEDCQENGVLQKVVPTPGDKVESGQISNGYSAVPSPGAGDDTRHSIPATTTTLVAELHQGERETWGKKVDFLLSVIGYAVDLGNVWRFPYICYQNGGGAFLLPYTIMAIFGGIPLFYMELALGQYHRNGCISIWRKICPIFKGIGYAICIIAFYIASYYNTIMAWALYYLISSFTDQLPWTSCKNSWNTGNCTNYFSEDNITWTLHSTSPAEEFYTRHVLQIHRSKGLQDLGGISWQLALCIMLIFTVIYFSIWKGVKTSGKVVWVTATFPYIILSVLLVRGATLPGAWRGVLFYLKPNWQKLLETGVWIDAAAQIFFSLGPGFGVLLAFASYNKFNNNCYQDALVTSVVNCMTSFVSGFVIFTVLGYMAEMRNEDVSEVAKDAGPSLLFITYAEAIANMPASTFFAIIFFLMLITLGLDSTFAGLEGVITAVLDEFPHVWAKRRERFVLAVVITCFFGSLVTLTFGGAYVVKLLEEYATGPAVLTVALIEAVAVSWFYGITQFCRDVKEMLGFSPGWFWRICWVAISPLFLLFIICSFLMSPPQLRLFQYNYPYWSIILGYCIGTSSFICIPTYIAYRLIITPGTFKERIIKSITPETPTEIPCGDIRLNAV

**Q.** For CC1(NCC(O)C2(c3ccc(Cl)c(Cl)c3)CCC2)CC1 (stereo not drawn) [Compound 34, N-{2-[1-(3,4-Dichlorophenyl)cyclobutyl]-2-hydroxyethyl}-1-methylcyclopropan-1-aminium chloride], which Ki (human recombinant SERT; [1]) is on record?
**A.** 101 to 500 nM

**Q.** And the Ki (human recombinant NET; [2])?
**A.** 11 to 100 nM

**Q.** And the Ki (human recombinant DAT)?
**A.** 11 to 100 nM

**Q.** How did the Ki (human recombinant SERT; [1]) turn out when OC(CNC1CC1)C1(c2ccc(Cl)c(Cl)c2)CCC1 (stereo not drawn) [Compound 35, N-{2-[1-(3,4-Dichlorophenyl)cyclobutyl]-2-hydroxyethyl}cyclopropanaminium chloride] was run?
**A.** > 500 nM

**Q.** And the Ki (human recombinant NET; [2])?
**A.** 101 to 500 nM

**Q.** And the Ki (human recombinant DAT)?
**A.** 11 to 100 nM

**Q.** OC(CNC1CCC1)C1(c2ccc(Cl)c(Cl)c2)CCC1 (stereo not drawn) [Compound 36, N-{2-[1-(3,4-Dichlorophenyl)cyclobutyl]-2-hydroxyethyl}cyclobutanaminium chloride] was tested. Which Ki (human recombinant SERT; [1]) did it give?
**A.** 101 to 500 nM

**Q.** What about the Ki (human recombinant NET; [2]) of the same compound?
**A.** 101 to 500 nM

**Q.** And the Ki (human recombinant DAT)?
**A.** 11 to 100 nM

**Q.** With CC1(NCC(O)C2(c3ccc(Cl)c(Cl)c3)CCC2)CCC1 (stereo not drawn) [Compound 38, N-{2-[1-(3,4-Dichlorophenyl)cyclobutyl]-2-hydroxyethyl}-1-methylcyclobutan-1-aminium chloride] as the compound, how does the Ki (human recombinant SERT; [1]) read?
**A.** 101 to 500 nM

**Q.** And the Ki (human recombinant NET; [2])?
**A.** 11 to 100 nM

**Q.** What about the Ki (human recombinant DAT) of the same compound?
**A.** < 10 nM

**Q.** OC(CN1CC2CC(F)C1C2)C1(c2ccc(Cl)c(Cl)c2)CCC1 (stereo not drawn) [Compound 39, 2-{2-[1-(3,4-Dichlorophenyl)cyclobutyl]-2-hydroxyethyl}-6-fluoro-2-azabicyclo[2.2.1]heptan-2-ium chloride] was tested. Which Ki (human recombinant SERT; [1]) did it give?
**A.** > 500 nM

**Q.** What about the Ki (human recombinant NET; [2]) of the same compound?
**A.** 101 to 500 nM

**Q.** And the Ki (human recombinant DAT)?
**A.** 101 to 500 nM

**Q.** With CC(F)C(C)NCC(O)C1(c2ccc(Cl)c(Cl)c2)CCC1 (stereo not drawn) [Compound 42, {2-[1-(3,4-dichlorophenyl)cyclobutyl]-2-hydroxyethyl}(3-fluorobutan-2-yl)azanium chloride] as the compound, how does the Ki (human recombinant SERT; [1]) read?
**A.** 101 to 500 nM

**Q.** And the Ki (human recombinant NET; [2])?
**A.** 101 to 500 nM

**Q.** And the Ki (human recombinant DAT)?
**A.** 11 to 100 nM

**Q.** What does the source list for CCN(CC(O)C1(c2ccc(Cl)c(Cl)c2)CCC1)C(C)C (stereo not drawn) [Compound 47, {2-[1-(3,4-Dichlorophenyl)cyclobutyl]-2-hydroxyethyl}(ethyl)(propan-2-yl)azanium chloride]?
**A.** Ki (human recombinant SERT; [1]): 101 to 500 nM; Ki (human recombinant NET; [2]): 11 to 100 nM; Ki (human recombinant DAT): 11 to 100 nM

**Q.** Which results are given for CCCN(CC)CC(O)C1(c2ccc(Cl)c(Cl)c2)CCC1 (stereo not drawn) [Compound 48, {2-[1-(3,4-Dichlorophenyl)cyclobutyl]-2-hydroxyethyl}(ethyl)propylazanium chloride]?
**A.** Ki (human recombinant SERT; [1]): 101 to 500 nM; Ki (human recombinant NET; [2]): 11 to 100 nM; Ki (human recombinant DAT): 11 to 100 nM

**Q.** What does the source list for COC(CN1CCCCC1)C1(c2ccc(Cl)c(Cl)c2)CCC1 (stereo not drawn) [Compound 59, 1-{2-[1-(3,4-dichlorophenyl)cyclobutyl]-2-methoxyethyl}piperidin-1-ium chloride]?
**A.** Ki (human recombinant SERT; [1]): > 500 nM; Ki (human recombinant NET; [2]): > 500 nM; Ki (human recombinant DAT): > 500 nM

**Q.** OC(CN1CCCCC1)C1(c2ccc(Cl)c(Cl)c2)CCCC1 (stereo not drawn) [Compound 60, 1-{2-[1-(3,4-dichlorophenyl)cyclopentyl]-2-hydroxyethyl}piperidin-1-ium chloride] was tested. Which Ki (human recombinant SERT; [1]) did it give?
**A.** 101 to 500 nM

**Q.** And the Ki (human recombinant NET; [2])?
**A.** 101 to 500 nM

**Q.** And the Ki (human recombinant DAT)?
**A.** 11 to 100 nM

**Q.** Which results are given for O=C(CN1CCCCC1)C1(c2ccc(Cl)c(Cl)c2)CCCC1 [Compound 61, 1-{2-[1-(3,4-dichlorophenyl)cyclopentyl]-2-oxoethyl}piperidin-1-ium chloride]?
**A.** Ki (human recombinant SERT; [1]): > 500 nM; Ki (human recombinant NET; [2]): > 500 nM; Ki (human recombinant DAT): 11 to 100 nM

**Q.** With O=C(CN1CCCCC1)C1(c2ccc(Cl)cc2)CCC1 [Compound 66] as the compound, how does the Ki (human recombinant SERT) read?
**A.** > 500 nM

**Q.** What about the Ki (human recombinant NET) of the same compound?
**A.** > 500 nM

**Q.** And the Ki (human recombinant DAT; HEK293 cell membranes expressing human recombinant DAT, [3H]WIN-35428, SPA, read-out: DAT Ki)?
**A.** > 500 nM

**Q.** For O=C(CN1CCCCC1)C1(c2ccc(Cl)c(Cl)c2)CCC1 [Compound 67], which Ki (human recombinant SERT; [1]) is on record?
**A.** 101 to 500 nM

**Q.** What about the Ki (human recombinant NET; [2]) of the same compound?
**A.** > 500 nM

**Q.** And the Ki (human recombinant DAT)?
**A.** 11 to 100 nM

**Q.** What does the source list for O=C(CN1CCCCC1)C1(c2ccccc2)CCC1 [Compound 68, 1-[2-oxo-2-(1-phenylcyclobutyl)ethyl]piperidin-1-ium chloride]?
**A.** Ki (human recombinant SERT; [1]): > 500 nM; Ki (human recombinant NET; [2]): > 500 nM; Ki (human recombinant DAT): > 500 nM

**Q.** Which Ki (human recombinant SERT; [1]) does the source give for O=C(CN1CCCCC1)C1(c2cccc(Cl)c2)CCC1 [Compound 69] here?
**A.** > 500 nM

**Q.** And the Ki (human recombinant NET; [2])?
**A.** > 500 nM

**Q.** What about the Ki (human recombinant DAT) of the same compound?
**A.** > 500 nM

**Q.** Which Ki (human recombinant SERT; [1]) does the source give for CC(O)(CN1CCCCC1)C1(c2ccc(Cl)c(Cl)c2)CCC1 (stereo not drawn) [Compound 71, 1-{2-[1-(3,4-dichlorophenyl)cyclobutyl]-2-hydroxypropyl}piperidin-1-ium chloride] here?
**A.** > 500 nM

**Q.** And the Ki (human recombinant NET; [2])?
**A.** 101 to 500 nM

**Q.** And the Ki (human recombinant DAT)?
**A.** 11 to 100 nM
